Test results taken from patent publication US7098246B2, “Natural compounds and their derivatives for the prevention and treatment of cardiovascular, hepatic and renal diseases and for cosmetic applications” (Puleva Biotech, S.A., priority 2002, dated 2006).

How the values were obtained:
[1] = Stability against forced oxidation at 120° C. in an oily food matrix (refined oil, Rancimat)
Experimental: This was done by measuring the remaining amount of each of the compounds when these were subjected to forced oxidation at 120° C. Oxidation was done by passing a dry air current (˜20 I/h) through an aliquot of the sample (4 ml) placed in a reactor heated to 120° C. using a Metrohm-Herisau A. G Rancimat apparatus.
The solutions of all the compounds were prepared in refined oil. A total of 5 mg of II were dissolved in 5 g of refined oil, and finally 0.5 g of this solution were dissolved in. 5 g of refined oil. Similarly, solutions III and VIII were prepared in refined oil. Aliquots of 0.3 ml were collected at different times for each solution and were stored at −20° C. […] After introducing the sample, 6 ml of hexane, 6 ml of hexane/ethyl acetate (9:1) and 10 ml of methanol were passed through it, and then the methanolic fraction was concentrated to 1 ml volume. […] Once again, the methanolic phase was concentrated to 1 ml volume for analysis.

[2] = Absorption of hydroxytyrosol administered orally in human volunteers; assay type: in vivo; conditions: oral
Experimental: Pure hydroxytyrosol was obtained from olive leaves using standard extraction procedures compatible with the consumption of food products.
A 2.5 mg dose of hydroxytyrosol was administered per kg weight to 5 fasting healthy volunteers aged from 22–30 years who had not taken olive oil in their diet for at least two days before the study. Hydroxytyrosol dissolved in water was administered orally and afterwards blood samples were obtained at 0, 10, 20, 30, 60, 120 minutes. The plasma level of hydroxytyrosol and derived metabolites were determined by gas chromatography-mass spectometry using anthracene and napthol as internal standards.

[3] = Absorption of hydroxytyrosol and derivatives administered orally in mice (hydroxytyrosol in plasma); conditions: oral, oily solution, equivalent amounts (10 mg II, 13 mg III, 70 mg IX)
Excerpt: Plasma was isolated from each blood sample by extraction with ethyl acetate and analysed by gas chromatography-mass spectometry.

| Compound | remaining amount of compound during forced oxidation ([1]; 120° C., dry air current, after 10 hours, RP-HPLC) | time bioavailable after administration [2] | time of return of hydroxytyrosol plasma level to values similar to initial ones ([2]; 2.5 mg per kg weight in water) | time of maximum plasma level of hydroxytyrosol after administration ([2]; 2.5 mg per kg weight in water, fasting) | degradation state during forced oxidation ([1]; 120° C., after 10 hours) | stability against oxidation compared with hydroxytyrosol ([1]; forced oxidation at 120° C.) | Hydroxytyrosol in plasma, 15 min. ([3]; 15 min) | Hydroxytyrosol in plasma, 60 min. ([3]; 60 min) |
| --- | --- | --- | --- | --- | --- | --- | --- | --- |
| CCCCCCCCCCCCCCCCCCOc1ccc(CCO)cc1O [Compound VII, 2-(4-stearyloxy-3-hydroxyphenyl) ethanol] | 50% |  |  |  |  |  |  |  |
| OCCc1ccc(O)c(O)c1 [II, 2-(3,4-dihydroxyphenyl) ethanol] |  | at least 30 minutes | 30 min | 10 min | completely degraded |  |  |  |
| CC(=O)OCCc1ccc(O)c(O)c1 [III, 2-(3,4-dihydroxyphenyl) ethyl acetate] |  |  |  |  | completely degraded | takes longer to degrade than hydroxytyrosol (II) | 0.68 mg/L | 0.06 mg/L |
